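Following 48 hours of exposure in 96-well plates, responses at five concentrations were used to interpolate endpoints linearly. GI50: concentration for 50% inhibition of growth. Definition used: TGI = concentration required for complete inhibition of growth.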
Tests used:
Assay in all cases: inhibition of tumour cell growth, NCI panel, 48 h
SNB-75 CNS = system: SNB-75 CNS
786-0 renal = system: 786-0 renal
MDA-MB-231 breast = system: MDA-MB-231 breast
LOX IMVI melanoma = system: LOX IMVI melanoma
MCF7 breast = system: MCF7 breast
NCI-H522 lung = system: NCI-H522 lung
RPMI-8226 leukemia = system: RPMI-8226 leukemia
MALME-3M melanoma = system: MALME-3M melanoma
SF-268 CNS = system: SF-268 CNS
DU-145 prostate = system: DU-145 prostate
A549 NSCLC = system: A549 NSCLC
SW-620 colon = system: SW-620 colon
SK-OV-3 ovarian = system: SK-OV-3 ovarian
SN12C renal = system: SN12C renal
NCI-H226 lung = system: NCI-H226 lung
HCT-116 colon = system: HCT-116 colon
A498 renal = system: A498 renal
HCC-2998 colon = system: HCC-2998 colon
COLO 205 colon = system: COLO 205 colon
IGROV1 ovarian = system: IGROV1 ovarian
K-562 leukemia = system: K-562 leukemia
OVCAR-8 ovarian = system: OVCAR-8 ovarian
KM12 colon = system: KM12 colon
M14 melanoma = system: M14 melanoma
NCI/ADR-RES ovarian = system: NCI/ADR-RES ovarian
RXF 393 renal = system: RXF 393 renal
UACC-62 melanoma = system: UACC-62 melanoma
SK-MEL-5 melanoma = system: SK-MEL-5 melanoma
HL-60(TB) leukemia = system: HL-60(TB) leukemia
SK-MEL-28 melanoma = system: SK-MEL-28 melanoma
NCI-H23 lung = system: NCI-H23 lung
MOLT-4 leukemia = system: MOLT-4 leukemia
SNB-19 CNS = system: SNB-19 CNS
UACC-257 melanoma = system: UACC-257 melanoma
HOP-92 NSCLC = system: HOP-92 NSCLC
EKVX NSCLC = system: EKVX NSCLC
SF-295 CNS = system: SF-295 CNS
SK-MEL-2 melanoma = system: SK-MEL-2 melanoma
OVCAR-4 ovarian = system: OVCAR-4 ovarian
SF-539 CNS = system: SF-539 CNS
OVCAR-3 ovarian = system: OVCAR-3 ovarian
HOP-62 NSCLC = system: HOP-62 NSCLC
BT-549 breast = system: BT-549 breast
CAKI-1 renal = system: CAKI-1 renal
PC-3 prostate = system: PC-3 prostate
NCI-H460 lung = system: NCI-H460 lung
UO-31 renal = system: UO-31 renal
HT29 colon = system: HT29 colon
OVCAR-5 ovarian = system: OVCAR-5 ovarian
MDA-MB-435 = system: MDA-MB-435
HS 578T breast = system: HS 578T breast
CCRF-CEM leukemia = system: CCRF-CEM leukemia
ACHN renal = system: ACHN renal
T-47D breast = system: T-47D breast
SR leukemia = system: SR leukemia
HCT-15 colon = system: HCT-15 colon
U251 CNS = system: U251 CNS
TK-10 renal = system: TK-10 renal

## O=C1c2ccc3c4c(ccc(c24)C(=O)N1CCCNCc1ccccc1F)C(=O)N(CCCNCc1ccccc1F)C3=O
SNB-75 CNS
  GI50: 164 nM
  TGI: 320 nM
786-0 renal
  GI50: 217 nM
  TGI: 587 nM
MDA-MB-231 breast
  GI50: 250 nM
  TGI: 717 nM
LOX IMVI melanoma
  GI50: 121 nM
  TGI: 317 nM
MCF7 breast
  GI50: 109 nM
  TGI: 359 nM
NCI-H522 lung
  GI50: 154 nM
  TGI: 298 nM
RPMI-8226 leukemia
  GI50: 272 nM
  TGI: 818 nM
MALME-3M melanoma
  GI50: 151 nM
  TGI: 299 nM
SF-268 CNS
  GI50: 208 nM
  TGI: 534 nM
DU-145 prostate
  GI50: 154 nM
  TGI: 287 nM
A549 NSCLC
  GI50: 107 nM
  TGI: 294 nM
SW-620 colon
  GI50: 75.4 nM
  TGI: 274 nM
SK-OV-3 ovarian
  GI50: 249 nM
  TGI: 635 nM
SN12C renal
  GI50: 144 nM
  TGI: 296 nM
NCI-H226 lung
  GI50: 210 nM
  TGI: 482 nM
HCT-116 colon
  GI50: 67.6 nM
  TGI: 303 nM
A498 renal
  GI50: 310 nM
  TGI: 1720 nM
HCC-2998 colon
  GI50: 158 nM
  TGI: 312 nM
COLO 205 colon
  GI50: 86.3 nM
  TGI: 208 nM
IGROV1 ovarian
  GI50: 180 nM
  TGI: 543 nM
K-562 leukemia
  GI50: 209 nM
  TGI: 5520 nM
OVCAR-8 ovarian
  GI50: 95.4 nM
  TGI: 422 nM
KM12 colon
  GI50: 127 nM
  TGI: 285 nM
M14 melanoma
  GI50: 152 nM
  TGI: 293 nM
NCI/ADR-RES ovarian
  GI50: 206 nM
  TGI: 726 nM
RXF 393 renal
  GI50: 138 nM
  TGI: 274 nM
UACC-62 melanoma
  GI50: 179 nM
  TGI: 335 nM
SK-MEL-5 melanoma
  GI50: 163 nM
  TGI: 299 nM
HL-60(TB) leukemia
  GI50: 239 nM
  TGI: 542 nM
SK-MEL-28 melanoma
  GI50: 210 nM
  TGI: 465 nM
NCI-H23 lung
  GI50: 171 nM
  TGI: 369 nM
MOLT-4 leukemia
  GI50: 144 nM
  TGI: 544 nM
SNB-19 CNS
  GI50: 136 nM
  TGI: 275 nM
UACC-257 melanoma
  GI50: 172 nM
  TGI: 340 nM
HOP-92 NSCLC
  GI50: 238 nM
  TGI: 566 nM
EKVX NSCLC
  GI50: 171 nM
  TGI: 331 nM
SF-295 CNS
  GI50: 176 nM
  TGI: 409 nM
SK-MEL-2 melanoma
  GI50: 192 nM
  TGI: 366 nM
OVCAR-4 ovarian
  GI50: 109 nM
  TGI: 237 nM
SF-539 CNS
  GI50: 208 nM
  TGI: 464 nM
OVCAR-3 ovarian
  GI50: 189 nM
  TGI: 557 nM
HOP-62 NSCLC
  GI50: 151 nM
  TGI: 331 nM
BT-549 breast
  GI50: 317 nM
  TGI: 767 nM
CAKI-1 renal
  GI50: 187 nM
  TGI: 495 nM
PC-3 prostate
  GI50: 228 nM
  TGI: 658 nM
NCI-H460 lung
  GI50: 154 nM
  TGI: 504 nM
UO-31 renal
  GI50: 194 nM
  TGI: 468 nM
HT29 colon
  GI50: 49.4 nM
  TGI: 203 nM
OVCAR-5 ovarian
  GI50: 200 nM
  TGI: 449 nM
MDA-MB-435
  GI50: 175 nM
  TGI: 359 nM
HS 578T breast
  GI50: 523 nM
  TGI: 2860 nM
CCRF-CEM leukemia
  GI50: 166 nM
ACHN renal
  GI50: 127 nM
  TGI: 563 nM
T-47D breast
  GI50: 194 nM
  TGI: 417 nM
SR leukemia
  GI50: 123 nM
  TGI: 614 nM

## COC(=O)[C@@H]1CCCN1C(=O)[C@@H]1CCCN1C(=O)[C@H](Cc1ccccc1)NC(=S)Nc1cc(C(F)(F)F)cc(C(F)(F)F)c1
SNB-75 CNS
  GI50: 2060 nM
  TGI: 61000 nM
786-0 renal
  GI50: 4470 nM
  TGI: > 100000 nM
MDA-MB-231 breast
  GI50: 2040 nM
  TGI: 5600 nM
LOX IMVI melanoma
  GI50: 2600 nM
  TGI: 9890 nM
MCF7 breast
  GI50: 3080 nM
  TGI: > 100000 nM
NCI-H522 lung
  GI50: 3170 nM
  TGI: 9600 nM
RPMI-8226 leukemia
  GI50: 3360 nM
  TGI: 41000 nM
MALME-3M melanoma
  GI50: 5530 nM
  TGI: > 100000 nM
HCT-15 colon
  GI50: 3800 nM
  TGI: > 100000 nM
SF-268 CNS
  GI50: 4830 nM
  TGI: > 100000 nM
DU-145 prostate
  GI50: 5060 nM
  TGI: > 100000 nM
A549 NSCLC
  GI50: 3820 nM
  TGI: > 100000 nM
SW-620 colon
  GI50: 5110 nM
  TGI: > 100000 nM
SK-OV-3 ovarian
  GI50: 9260 nM
  TGI: > 100000 nM
SN12C renal
  GI50: 3470 nM
  TGI: > 100000 nM
NCI-H226 lung
  GI50: 3390 nM
  TGI: > 100000 nM
HCT-116 colon
  GI50: 3010 nM
  TGI: 15200 nM
A498 renal
  GI50: 2550 nM
  TGI: 22900 nM
HCC-2998 colon
  GI50: 2650 nM
  TGI: 7060 nM
COLO 205 colon
  GI50: 2430 nM
  TGI: 5850 nM
IGROV1 ovarian
  GI50: 7240 nM
  TGI: > 100000 nM
OVCAR-8 ovarian
  GI50: 4310 nM
  TGI: > 100000 nM
KM12 colon
  GI50: 3930 nM
  TGI: > 100000 nM
M14 melanoma
  GI50: 3700 nM
  TGI: > 100000 nM
NCI/ADR-RES ovarian
  GI50: 2990 nM
  TGI: > 100000 nM
RXF 393 renal
  GI50: 2190 nM
  TGI: 7410 nM
UACC-62 melanoma
  GI50: 3300 nM
  TGI: 63500 nM
SK-MEL-5 melanoma
  GI50: 2600 nM
  TGI: 9180 nM
HL-60(TB) leukemia
  GI50: 2530 nM
  TGI: 5490 nM
SK-MEL-28 melanoma
  GI50: 3480 nM
  TGI: > 100000 nM
NCI-H23 lung
  GI50: 3160 nM
  TGI: > 100000 nM
MOLT-4 leukemia
  GI50: 2880 nM
  TGI: 7880 nM
SNB-19 CNS
  GI50: 3770 nM
  TGI: > 100000 nM
UACC-257 melanoma
  GI50: 2920 nM
  TGI: 11400 nM
HOP-92 NSCLC
  GI50: 1770 nM
  TGI: 5650 nM
EKVX NSCLC
  GI50: 3070 nM
  TGI: > 100000 nM
SF-295 CNS
  GI50: 2160 nM
  TGI: 4820 nM
SK-MEL-2 melanoma
  GI50: 2930 nM
  TGI: 7390 nM
OVCAR-4 ovarian
  GI50: 4290 nM
  TGI: > 100000 nM
SF-539 CNS
  GI50: 4510 nM
  TGI: > 100000 nM
OVCAR-3 ovarian
  GI50: 3430 nM
  TGI: 9980 nM
HOP-62 NSCLC
  GI50: 4560 nM
  TGI: 72500 nM
BT-549 breast
  GI50: 4390 nM
  TGI: 71500 nM
CAKI-1 renal
  GI50: 3550 nM
  TGI: > 100000 nM
PC-3 prostate
  GI50: 2720 nM
  TGI: 26200 nM
NCI-H460 lung
  GI50: 3400 nM
  TGI: > 100000 nM
UO-31 renal
  GI50: 3300 nM
  TGI: > 100000 nM
HT29 colon
  GI50: 2760 nM
  TGI: 6510 nM
OVCAR-5 ovarian
  GI50: 3800 nM
  TGI: 42400 nM
MDA-MB-435
  GI50: 3290 nM
  TGI: > 100000 nM
HS 578T breast
  GI50: 4490 nM
  TGI: > 100000 nM
CCRF-CEM leukemia
  GI50: 3540 nM
  TGI: > 100000 nM
ACHN renal
  GI50: 3980 nM
  TGI: > 100000 nM
U251 CNS
  GI50: 2790 nM
  TGI: 13200 nM
T-47D breast
  GI50: 4270 nM
  TGI: > 100000 nM
SR leukemia
  GI50: 3690 nM
  TGI: 24900 nM
TK-10 renal
  GI50: 5410 nM
  TGI: > 100000 nM
